Patent US6323186A, “Phosphate-bound polyazaindacene derivatives of nucleotides” (Molecular Probes, Inc., priority 2000, dated 2001)

Test: Relative quantum yield determination for labeled nucleotides
Format: physicochemical
Description: […] The concentration of this solution is matched with that of a solution of Compound 2 in the same solvent by matching the optical density (OD) at the absorption wavelength maximum, which is 504 nm for both samples.

[1] = in methanol, relative to reference fluorophore
[2] = pH 9 phosphate buffer, OD matched at absorption maximum, excited at λmax, reference 4,4-difluoro-5,7-dimethyl-4-bora-3a,4a-diaza-s-indacene-3-propionic acid
[3] = pH 9 phosphate buffer, relative to reference fluorophore

## Cc1cc(C)n2c1C=C1C=CC(CNC(=O)CSP(=O)(O)OP(=O)(O)OP(=O)(O)OC[C@H]3O[C@@H](n4cnc5c(=O)[nH]c(N)nc54)[C@H](O)[C@@H]3O)=[N+]1[B-]2(F)F [Compound 2]
[1]
  fluorescence quenched: 41%
  fluorescence yield relative to reference fluorophore: 59%
[2]
  fluorescence yield relative to reference fluorophore: 11%
[3]
  fluorescence quenched: 89%

## Nc1nc2c(ncn2[C@@H]2O[C@H](COP(=O)(O)OP(=O)(O)OP(=O)(O)SCC(=O)NCCCCCNC(=O)COc3ccc(C4=[N+]5C(=Cc6ccc(-c7cccs7)n6[B-]5(F)F)C=C4)cc3)[C@@H](O)[C@H]2O)c(=O)[nH]1 [Compound 4]
[1]
  fluorescence quenched: 25%
  fluorescence yield relative to reference fluorophore: 75%
[2]
  fluorescence yield relative to reference fluorophore: 9.1%
[3]
  fluorescence quenched: 90.9%
